Legend:
[1] = target: T1, 37 kDa laminin receptor precursor (37LRP/67LR) (Homo sapiens, UniProt P08865); experiment: ELISA-type inhibition of r37LRP binding to immobilized laminin (and YIGSR)
T1 construct: gene RPSA

[2] = target: T1, 37 kDa laminin receptor precursor (37LRP/67LR); experiment: ELISA-type inhibition of r37LRP binding to immobilized laminin at […]; format: biochemical

Compound | IC50 [1] | ELISA-type inhibition of r37LRP binding to immobilized laminin at 50 μM [2]
COc1ccc(NCc2c(O)ccc3ccccc23)cc1 [compound 13, 1-((4-methoxyanilino)methyl)-2-naphthol] | 58.9 µM | –
Cc1ccc(NCc2c(O)ccc3ccccc23)cc1 [compound 50, 1-(4-toluidinomethyl)-2-naphthol] | – | NSC47923, NSC48478, NSC48861 and NSC48869 were active to the same extent as NSC47924, by in vitro binding assays
Oc1ccc2ccccc2c1CNc1ccc(Cl)cc1 [compound 52, 1-((4-chloroanilino)methyl)-2-naphthol] | – | NSC47923, NSC48478, NSC48861 and NSC48869 were active to the same extent as NSC47924, by in vitro binding assays
Oc1ccc2ccccc2c1CN(Cc1c(O)ccc2ccccc12)c1ccccc1 [compound 60, 1-((((2-hydroxy-1-naphthyl)methyl)anilino)methyl)-2-naphthol] | – | NSC47923, NSC48478, NSC48861 and NSC48869 were active to the same extent as NSC47924, by in vitro binding assays
Cc1ccc(N(Cc2c(O)ccc3ccccc23)Cc2c(O)ccc3ccccc23)cc1 [compound 61, 1-((((2-hydroxy-1-naphthyl)methyl)-4-methylanilino)methyl)-2-naphthol] | – | NSC47923, NSC48478, NSC48861 and NSC48869 were active to the same extent as NSC47924, by in vitro binding assays
